Results taken from patent publication US20030148954A1, “Agents and methods for modulating activator protein-1-mediated cellular processes” (Wisconsin Alumni Research Foundation, priority 2001, published 2003).

Assays:
MMP1 = experiment: Northern blotting of MMP1 transcripts in K562-Babe and K562-NIC-1 cells; assay type: cell-based, human; conditions: K562-Babe cells, 5 nM TPA 12 h
Experimental: (§1) Stable Transfection—K562 cells were stably transfected by electroporation with a Bio-Rad Gene pulser electroporator. Cells (5×10^6) were washed with ice-cold PBS, resuspended in 0.5 ml of ice-cold PBS, mixed with 5 μg linearized plasmid DNA, and subjected to electroporation (960 microfarad; 220 V) in a 0.4 cm-wide electroporation cuvette (BTX). pBabe and pNIC-1 were linearized with NotI. Cells were then added to 20 ml of complete IMEM, grown for 48 h, and diluted in complete IMEM containing 1.5 μg/ml puromycin (pools of K562-Babe and K562-NIC-1 cells). Stably transfected cells were analyzed for erythroid differentiation as soon as the pools were generated by benzidine staining to reduce the probability of phenotypic changes that may result from prolonged growth.
(§2) Northern Blotting—Total RNA from K562-Babe and K562-NIC-1 cells was extracted with Triazol (Life Technologies, Inc.). Ten μg of RNA per sample was electrophoresed on a 1% agarose, 6.6% formaldehyde gel and then transferred overnight to a Magnacharge nylon membrane (Osmonics). RNA was cross-linked to the membrane by UV irradiation. Membranes were prehybridized for 30 min at 60° C. in ExpressHyb hybridization solution (Clontech). […] Radioactivity was quantitated by PhosphorImager analysis with ImageQuant software (Molecular Dynamics).

CMV enhancer = experiment: pCMVβgal β-galactosidase reporter, transient transfection of K562 cells; assay type: cell-based, human; conditions: K562, TPA treatment
Experimental: (§3) Transient Transfections—K562 cells (5×10^5) were collected by centrifugation at 240×g for 8 min at 4° C. and resuspended in 4 ml of complete IMEM. Plasmid DNAs (1 μg of reporter and 2 μg of effector) were added to 150 μl of IMEM, incubated with Superfect (4 μl/1 μg DNA; Qiagen) for 10 min at room temperature and then added to cells.
(§4) For each transfection, cells were incubated for 26 h after transfection and then treated with TPA (final concentration: 5 nM) or the vehicle (DMSO). […] Luciferase activity was normalized by the protein content of the lysates, determined by Bradford assay using γ-globulin as a standard.

AP-1 [1] = experiment: AP-1 luciferase reporter, transient transfection of HeLa cells; assay type: cell-based, human
Description: (§5) Plasmids—The pBabe-NIC-1 (pNIC-1) expression vector encoding constitutively active Notch-1 (NIC-1) was described previously (36,37,51). This vector was derived from the pBabe-puro retroviral vector and includes a cDNA sequence encoding amino acids 1759-2556 of human Notch-1 with a Myc tag fused to its carboxyl terminus. Human NIC-1 deletion mutants were generated by PCR using a full-length human Notch-1 expression vector as the template. The Notch-dependent reporter plasmid containing four CBF1 binding sites and an simian virus 40 promoter fused to luciferase (p4×CBF1luc) was described previously (52). The AP-1 reporter plasmid (p1×AP1luc) containing a collagenase promoter fragment (−73/+67) with a single AP-1 binding site in the luciferase reporter vector pGL2-basic (Promega) was described previously (53). The NF-κB reporter plasmid (p3×κBluc) containing three NF-κB binding sites and a minimal promoter fused to luciferase was a kind gift of Dr. Shigeki Miyamoto (University of Wisconsin Medical School). […]
as §4

human Aγ globin promoter = experiment: pGL3γLuc reporter, transient transfection of K562 cells; assay type: cell-based; conditions: K562, TPA treatment
Experimental: as §3
(§6) For each transfection, cells were incubated for 26 h after transfection and then treated with TPA (final concentration: 5 nM) or the vehicle (DMSO). After incubating for another 12 or 16 h, cells were harvested and assayed for luciferase activity. Luciferase activity was normalized by the protein content of the lysates, determined by Bradford assay using γ-globulin as a standard.

IL-8 = experiment: Northern blotting of IL-8 transcripts in K562-Babe and K562-NIC-1 cells; assay type: cell-based, human; conditions: K562-Babe cells, 5 nM TPA 12 h
Experimental: as §1, §2

AP-1 [2] = experiment: EMSA of AP-1 DNA binding activity in nuclear extracts; parameters: species or system human; conditions: K562 cells treated with TPA
Experimental: K562-Babe and K562-NIC-1 cells were harvested by centrifugation for 10 min at 150×g. Cells were washed once with ice-cold PBS and resuspended in 1.5 volumes of nuclei lysis buffer (10 mM Tris-HCl, pH 7.5, 10 mM NaCl, 3 mM MgCl2, and 0.2% Nonidet P-40) on ice for 3 min. Nuclei were collected by centrifugation for 5 min at 600×g. Nuclei were washed by gentle resuspension in 1.5 volumes of nuclei wash buffer (10 mM Tris-HCl, pH 7.5, 10 mM NaCl, and 3 mM MgCl2) and then collected by centrifugation for 4 min at 600×g. […] Nuclei were extracted for 45 min at 4° C. with constant mixing. The suspension was then centrifuged for 30 min at 150,000×g. Aliquots of the supernatant were frozen on dry ice and stored at -80° C. The protein concentration as measured by the Bradford assay, with y-globulin as a standard ranged from 4 to 10 mg/ml. DTT (5 mM), phenylmethanesulfonyl fluoride (0.5 mM), leupeptin (20 μg/ml), β-glycerophosphate (800 μM), sodium vanadate (1 mM), and sodium molybdate (50 μM) were included in all buffers. Electrophoretic Mobility Shift Assay-EMSA assays were done as described previously (54). AP-1 DNA binding activity was measured by EMSA with a double-stranded end-labeled oligonucleotide [NT] containing a high affinity AP-1 binding site. […] DNA binding activity was quantitated by PhosphorImager analysis with ImageQuant software (Molecular Dynamics).

NF-κB = NF-κB luciferase reporter (p3×κBluc), transient transfection of K562 cells; assay type: cell-based, human
Description: as §5, §4

AP-1 [3] = experiment: AP-1 luciferase reporter, transient transfection of K562 cells; assay type: cell-based, human; conditions: K562, p1×AP1luc, no NIC-1
Description: Plasmids—The pBabe-NIC-1 (pNIC-1) expression vector encoding constitutively active Notch-1 (NIC-1) was described previously (36,37,51). This vector was derived from the pBabe-puro retroviral vector and includes a cDNA sequence encoding amino acids 1759-2556 of human Notch-1 with a Myc tag fused to its carboxyl terminus. Human NIC-1 deletion mutants were generated by PCR using a full-length human Notch-1 expression vector as the template. The Notch-dependent reporter plasmid containing four CBF1 binding sites and an simian virus 40 promoter fused to luciferase (p4×CBF1luc) was described previously (52). The AP-1 reporter plasmid (p1×AP1luc) containing a collagenase promoter fragment (−73/+67) with a single AP-1 binding site in the luciferase reporter vector pGL2-basic (Promega) was described previously (53). The NF-κB reporter plasmid (p3×κBluc) containing three NF-κB binding sites and a minimal promoter fused to luciferase was a kind gift of Dr. Shigeki Miyamoto (University of Wisconsin Medical School). The pBabe-H-Ras(12V) expression vector encoding constitutively active H-Ras was a kind gift of Dr. Charming Der (University of North Carolina-Chapel Hill). This vector was derived from the pBabe-puro retroviral vector and includes a cDNA encoding H-Ras with a Gly to Val mutation at amino acid 12.
as §3, §6

Structure (SMILES): CCCCCCCCCCCCCC(=O)O[C@@H]1[C@@H](C)[C@@]2(O)[C@@H](C=C(CO)C[C@]3(O)C(=O)C(C)=C[C@@H]23)[C@@H]2C(C)(C)[C@]12OC(C)=O [TPA, reference compound]
- induction of MMP1 transcript levels (MMP1): strongly induced
- increase of pCMVβgal activity (CMV enhancer): strongly increased
- induction of AP-1 reporter activity by the activator (AP-1 [1]): strongly induced
- increase of pGL3γLuc activity (human Aγ globin promoter): ~3 fold
- induction of IL-8 transcript levels (IL-8): strongly induced
- induction of AP-1 DNA binding activity (AP-1 [2]): strongly induced
- activation of NF-κB reporter gene by the activator (NF-κB): strongly activated
- induction of AP-1 reporter activity by the activator (AP-1 [3]): strongly induced
